Data as given in patent US7211566B2 (Universite De Sherbrooke, priority 2003, dated 2007).
Square brackets hold non-standard residues; d marks the D form. Peptide text beside a SMILES is read from it. Oic = O=C(O)[C@@H]1C[C@@H]2CCCC[C@@H]2N1; d2Nal = N[C@H](Cc1ccc2ccccc2c1)C(=O)O; αMeF = C[C@](N)(Cc1ccccc1)C(=O)O; Orn = NCCC[C@H](N)C(=O)O

Key:
Type in all cases: in vivo
[1] = Circulatory half-life in rat plasma after bolus i.v. administration; conditions: iv, 2.5 mg/kg body weight, direct i.v. jugular administration, anaesthetized rats
Protocol: Rats were anesthetized with the administration of ketamine/xylazine (100 mg/ml:0.1 ml/100 g, i.p.). For ex vivo analysis, blood was collected by cardiac puncture and placed into 5 ml vacutainer tubes containing 0.5 ml of 0.1 M Na2CO3 (for blood and plasma). For in vivo analysis, the drug was administered by i.v. bolus (2.5 mg/kg body weight) in the jugular vein of anesthetized rats and blood was collected as described above after 2, 5, 15, 30, 60, 120, 180 and 240 min.
Quantitative analysis of the extracted compound and standard controls was carried out using an Agilent reverse-phase HPLC (model 1100) coupled to a 4.6×150 mm Zorbax 300SB-C18 column (5 μm particle size) and equipped with a diode array detector. The peptides were eluted at a flow rate of 0.7 ml/min. with a linear gradient ranging from 5 to 65% of acetonitrile/TFA 0.05%/water over 32 min. at 25° C. The elution positions and quantification of compounds were determined by following the absorbance at 226 nm.
Concentrations of the peak's products were estimated using a computer software program (Chemstation for LC 3D, Agilent) that controlled all the chromatography operations.

STZ diabetic mice [2] = assay: Hot plate test, type-1 diabetic hyperalgesia; conditions: STZ diabetic mice, i.p., at time of maximal inhibition (20 min)
Protocol: (§1) Male CD-1 mice weighting between 25–30 g (Charles River Breeding Laboratory, St-Constant, QC, Canada) were used. The mice were housed four by cage with free access to food and water. They were maintained under conditions of standard lighting, (alternating 12-h light/dark cycle), temperature (22±0.5° C.) and humidity (60±10%) with food and water available at libitum. Animals were used only once in a given experiment. Experiments were conducted between 10:00 and 18:00 h.
(§2) Streptozotocin (Pharmacia & Upjohn Incorporation, Mississauga, ON, Canada) was dissolved in saline at a pH of 4.5 and administered to mice i.p. The BKB1 agonist desArg^9BK and compound c were dissolved in saline and administered to mice i.p.
(§3) Insulin-dependent diabetes mellitus (IDDM) was induced in mice using STZ. Male CD-1 mice were given a single high i.p. dose of STZ (200 mg/kg) (McEvoy et al., 1984, J Clin Invest 74, 715–722). […] Blood glucose levels were determined with an automatic analyzer (Glucometer Elite XL, Bayer Incorporation, Toronto, Ontario, Canada) using glucose oxidase/potassium ferricyanide reagent strips. […]
The hot plate test was adapted from the technique of Eddy and Leimbach (1953, J Pharmacol Exp Ther 107, 385–389). […] When the pain threshold is reached the animal starts to react by licking its hind paw or to jump, and the reaction time is recorded with a built-in timer, with a maximum cut-off time of 30 s to avoid tissue damage. […]
(§4) The effect of the selected drugs on nociception was determined by converting the hot plate, the plantar stimulation, the tail immersion or the tail flick responses from latencies into MPE (Maximum Percent Effect) according to the following equation (Bhargava and Zhao, 1996, Neuropeptides, 30, 219–223): […]
In all tests, pre-treatment latencies were determined three times with an interval of 24 h starting three days before the injection of STZ or saline and the mean was calculated in order to obtain stable pre-drug response latency. […]

STZ diabetic mice [3] = assay: Tail flick test, type-1 diabetic hyperalgesia; conditions: STZ diabetic mice, i.p., at time of maximal inhibition (10 min)
Protocol: as §1, §2, §3
The tail flick test of D'Amour and Smith (D'Amour and Smith, 1941, J Pharmacol Exp Ther 72, 74–79) modified for mice was used. […] The radiant light is focussed on a blackened spot in the mid region of the animal's tail (2–3 cm from the tip of the tail) and the latency between the application of the stimulation light and the flicking of the animal's tail is recorded. When the animal flicks its tail, its exposes a photocell in the apparatus immediately below the tail and the instrument is automatically stopped and the time is recorded. […]
as §4

CC[C@H](C)[C@H](NC(=O)[C@@H](Cc1ccc2ccccc2c1)NC(=O)[C@H](CO)NC(=O)[C@](C)(Cc1ccccc1)NC(=O)CNC(=O)[C@@H]1CCCN1C(=O)[C@@H]1C[C@@H]2CCCC[C@@H]2N1C(=O)[C@H](CCCNC(=N)N)NC(=O)[C@H](CCCN)NC(C)=O)C(=O)O [compound c, Ac-Orn[Oic^2,(α-Me)Phe^5,D-βNal^7,Ile^8]desArg^9BK] (Ac-[Orn]R[Oic]PG[αMeF]S[d2Nal]I-OH)
half-life [1]: > 2 h | ID50 (STZ diabetic mice [2]): 0.078 ± 0.003 mg/kg | ID50 (STZ diabetic mice [3]): 0.072 ± 0.002 mg/kg
